Key:
Assay type in all cases: physicochemical
[1] = Transmittance at 450 nm of the color filter; conditions: negative-working colored resist, 1.0 μm film; transmittance at λmax normalized to 2%
Description: The colored resist solution obtained in section 3 above was applied to an undercoat layer side of the glass substrate having an undercoat layer obtained in section 2 above by a spin coater such that a film thickness was 1.0 μm. Subsequently, the film was pre-baked at 100° C. for 120 sec, whereby a monochromatic color filter was obtained.
The transmission spectrum of the color filter obtained above was measured, and the transmittance at 450 nm was evaluated according to the following criteria. The transmittance of the color filter at 450 nm was evaluated by correcting (normalizing) the transmittance at the maximum absorption wavelength of the colorant included in the color filter to 2%. A larger transmittance indicates greater transmission of blue light, which indicates favorable magenta or violet color that can be used in a blue filter.
A: Transmittance at 450 nm was 90% or more
B: Transmittance at 450 nm was 80% or more but not more than 90%
C: Transmittance at 450 nm was not more than 80%

[2] = Light-fastness of coating film (color difference ΔEab before and after xenon lamp irradiation); conditions: xenon lamp 20,000 luxes for 10 hours (200,000 lux·h)
Description: A glass substrate having undercoat layer formed by applying the colored resin composition obtained in section 3 above was irradiated with a xenon lamp at an intensity of 20,000 luxes for 10 hours (equivalent to 200,000 lux·h), and the color difference ΔEab between before and after the irradiation was determined. The light-fastness was evaluated according to the following criteria. A smaller ΔEab value indicates better light-fastness.
(§1) A: ΔEab value was less than 6
(§2) B: ΔEab value was from 6 to 10
(§3) C: ΔEab value was more than 10

[3] = Absorption spectrum in ethyl acetate solution (spectrophotometer UV-2400PC)
Description: In consideration of film thickness, the molar absorption coefficient of the specific metal complex compounds-1, -2, -3 and -4 of the invention is preferably as high as possible, and 60,000 or higher is preferable. The maximum absorption wavelength (λmax) thereof is preferably from 520 nm to 580 nm, and more preferably from 530 nm to 570 nm, in order to improve color purity. The maximum absorption wavelength and the molar absorption coefficient are determined by using a spectrophotometer UV-2400PC (manufactured by Shimadzu Corporation).
The molar absorption coefficient (ε) of each of the obtained compounds was measured in an ethyl acetate solution using a spectrophotometer (trade name: UV-2400PC; manufactured by Shimadzu Corporation). The absorbance (Abs) at 450 nm was evaluated by normalizing the absorbance at a maximum absorption wavelength (λmax) to 1.0. […] The measurement results of the absorbance (Abs value), maximum absorption wavelength (λmax), and molar absorption coefficient (ε) are shown in Table 1.
By the method similar to the reaction scheme in Synthesis Example 1 above, the exemplary compounds (dipyrromethene metal complex compounds or tautomers thereof) shown in Table 1 were synthesized. The identification of the compounds and the measurement of the maximum absorption wavelength (λmax) and the molar absorption coefficient (ε) of the compounds were performed similarly to Synthesis Example 1 above.

[4] = Storage stability of colored resist solution (precipitation after one month at room temperature); parameters: key: A: No precipitation was observed; B: Slight precipitation was observed; C: Precipitation was observed; conditions: negative-working colored resist solution, visual precipitation
Description: 9.4 g of the resist solution obtained in section 1 above and 0.35 g of the exemplary compound Ia-12 synthesized above (a compound represented by Formula (4): dipyrromethene complex compound) were mixed and dissolved, whereby a colored resist solution (a negative-working ultraviolet-sensitive colored curable composition) was obtained.
The colored resist solution was stored for one month at room temperature, and then degree of precipitation was visually observed. The storage stability was evaluated according to the following criteria.
A: No precipitation was observed
B: Slight precipitation was observed
C: Precipitation was observed

[5] = Heat resistance of coating film (color difference ΔEab before and after heating); conditions: 100° C. for 1 hour on hot plate
Description: A glass substrate having undercoat layer formed by applying the colored resin composition obtained in section 3 above was heat-treated at 100° C. for 1 hour using a hot plate, and the color difference (ΔEab) between before and after the heating was determined by using a […] MCPD-1000 (trade name, manufactured by Otsuka Electronics Co., Ltd.). The heat resistance was evaluated according to the following criteria. A smaller AEab value indicates better heat resistance.
as §1, §2, §3

Light-fastness [2]	maximum absorption wavelength (λmax) [3] [nm]	molar absorption coefficient (ε) [3]	Abs value at 450 nm when normalized to Abs = 1.0 at λmax [3]	Storage stability [4]	Heat resistance [5]	SMILES	Transmittance at 450 nm [1]
A (ΔEab value was less than 6)	552	106,300	0.0127	A	A (ΔEab value was less than 6)	CC1=C(C(=O)OC2C(C(C)(C)C)CC(C)CC2C(C)(C)C)C(NC(=O)c2cccc(C(F)(F)F)c2)=[N+]2C1=Cc1c(C)c(C(=O)OC3C(C(C)(C)C)CC(C)CC3C(C)(C)C)c(NC(=O)c3cccc(C(F)(F)F)c3)[n]1[Zn-]2[OH] (stereo not drawn) [IIa-6]	A (Transmittance at 450 nm was 90% or more)
A (ΔEab value was less than 6)	550	121,300	0.0084	A	A (ΔEab value was less than 6)	CC1=C(C(=O)OC2C(C(C)(C)C)CC(C)CC2C(C)(C)C)C(NC(=O)c2ccc(F)c(F)c2)=[N+]2C1=Cc1c(C)c(C(=O)OC3C(C(C)(C)C)CC(C)CC3C(C)(C)C)c(NC(=O)c3ccc(F)c(F)c3)[n]1[Zn-]2[OH] (stereo not drawn) [IIa-13]	A (Transmittance at 450 nm was 90% or more)
A (ΔEab value was less than 6)	551	100,100	0.0114	A	A (ΔEab value was less than 6)	CC1=C(C(=O)OC2C(C(C)(C)C)CC(C)CC2C(C)(C)C)C(NC(=O)c2cc(C(F)(F)F)cc(C(F)(F)F)c2)=[N+]2C1=Cc1c(C)c(C(=O)OC3C(C(C)(C)C)CC(C)CC3C(C)(C)C)c(NC(=O)c3cc(C(F)(F)F)cc(C(F)(F)F)c3)[n]1[Zn-]2[OH] (stereo not drawn) [IIa-14]	A (Transmittance at 450 nm was 90% or more)
A (ΔEab value was less than 6)	555	126,900	0.0081	B	A (ΔEab value was less than 6)	CC1=C(C(=O)OC2C(C(C)(C)C)CC(C)CC2C(C)(C)C)C(NC(=O)c2ccc(F)c([N+](=O)[O-])c2)=[N+]2C1=Cc1c(C)c(C(=O)OC3C(C(C)(C)C)CC(C)CC3C(C)(C)C)c(NC(=O)c3ccc(F)c([N+](=O)[O-])c3)[n]1[Zn-]2[OH] (stereo not drawn) [IIa-25]	A (Transmittance at 450 nm was 90% or more)
A (ΔEab value was less than 6)	563	97,100	0.0123	A	A (ΔEab value was less than 6)	CC1CC(C(C)(C)C)C(OC(=O)C2=C(c3ccccc3)C3=Cc4c(-c5ccccc5)c(C(=O)OC5C(C(C)(C)C)CC(C)CC5C(C)(C)C)c(NC(=O)c5ccc(C(F)(F)F)cc5)[n]4[Zn-]([OH])[N+]3=C2NC(=O)c2ccc(C(F)(F)F)cc2)C(C(C)(C)C)C1 (stereo not drawn) [IIb-7]	A (Transmittance at 450 nm was 90% or more)
A (ΔEab value was less than 6)	560	106,300	0.0107	A	A (ΔEab value was less than 6)	CC1CC(C(C)(C)C)C(OC(=O)C2=C(c3ccccc3)C3=Cc4c(-c5ccccc5)c(C(=O)OC5C(C(C)(C)C)CC(C)CC5C(C)(C)C)c(NC(=O)c5ccc(F)c(F)c5)[n]4[Zn-]([OH])[N+]3=C2NC(=O)c2ccc(F)c(F)c2)C(C(C)(C)C)C1 (stereo not drawn) [IIb-13]	A (Transmittance at 450 nm was 90% or more)
A (ΔEab value was less than 6)	560	117,400	0.01	A	A (ΔEab value was less than 6)	CC1CC(C(C)(C)C)C(OC(=O)C2=C(c3ccccc3)C3=Cc4c(-c5ccccc5)c(C(=O)OC5C(C(C)(C)C)CC(C)CC5C(C)(C)C)c(NC(=O)c5cc(C(F)(F)F)cc(C(F)(F)F)c5)[n]4[Zn-]([OH])[N+]3=C2NC(=O)c2cc(C(F)(F)F)cc(C(F)(F)F)c2)C(C(C)(C)C)C1 (stereo not drawn) [IIb-14]	A (Transmittance at 450 nm was 90% or more)

Continued, compound first:

SMILES	Light-fastness [2]	maximum absorption wavelength (λmax) [3] [nm]	molar absorption coefficient (ε) [3]	Abs value at 450 nm when normalized to Abs = 1.0 at λmax [3]	Storage stability [4]	Heat resistance [5]	Transmittance at 450 nm [1]
CC1=C(C(=O)OC2C(C(C)(C)C)CC(C)CC2C(C)(C)C)C(NC(=O)c2ccc(C(F)(F)F)cc2)=[N+]2C1=Cc1c(C)c(C(=O)OC3C(C(C)(C)C)CC(C)CC3C(C)(C)C)c(NC(=O)c3ccc(C(F)(F)F)cc3)[n]1[Zn-]2[OH] (stereo not drawn) [IIa-7]	A (ΔEab value was less than 6)	554	111,800	0.0089	A	A (ΔEab value was less than 6)	A (Transmittance at 450 nm was 90% or more)
CC1=C(C(=O)OC2C(C(C)(C)C)CC(C)CC2C(C)(C)C)C(NC(=O)c2ccc(C(F)(F)F)cc2F)=[N+]2C1=Cc1c(C)c(C(=O)OC3C(C(C)(C)C)CC(C)CC3C(C)(C)C)c(NC(=O)c3ccc(C(F)(F)F)cc3F)[n]1[Zn-]2[OH] (stereo not drawn) [IIa-15]	A (ΔEab value was less than 6)	550	116,700	0.0095	B	A (ΔEab value was less than 6)	A (Transmittance at 450 nm was 90% or more)
CC1=C(C(=O)OC2C(C(C)(C)C)CC(C)CC2C(C)(C)C)C(NC(=O)c2c(F)c(F)c(O)c(F)c2F)=[N+]2C1=Cc1c(C)c(C(=O)OC3C(C(C)(C)C)CC(C)CC3C(C)(C)C)c(NC(=O)c3c(F)c(F)c(O)c(F)c3F)[n]1[Zn-]2[OH] (stereo not drawn) [IIa-39]	A (ΔEab value was less than 6)	553	109,400	0.0119	A	A (ΔEab value was less than 6)	A (Transmittance at 450 nm was 90% or more)
CC1CC(C(C)(C)C)C(OC(=O)C2=C(c3ccccc3)C3=Cc4c(-c5ccccc5)c(C(=O)OC5C(C(C)(C)C)CC(C)CC5C(C)(C)C)c(NC(=O)c5cccc(C(F)(F)F)c5)[n]4[Zn-]([OH])[N+]3=C2NC(=O)c2cccc(C(F)(F)F)c2)C(C(C)(C)C)C1 (stereo not drawn) [IIb-6]	A (ΔEab value was less than 6)	560	114,000	0.0079	A	A (ΔEab value was less than 6)	A (Transmittance at 450 nm was 90% or more)
CC1CC(C(C)(C)C)C(OC(=O)C2=C(c3ccccc3)C3=Cc4c(-c5ccccc5)c(C(=O)OC5C(C(C)(C)C)CC(C)CC5C(C)(C)C)c(NC(=O)c5ccc(OC(F)(F)F)cc5)[n]4[Zn-]([OH])[N+]3=C2NC(=O)c2ccc(OC(F)(F)F)cc2)C(C(C)(C)C)C1 (stereo not drawn) [IIb-8]	A (ΔEab value was less than 6)	561	92,600	0.0135	A	A (ΔEab value was less than 6)	A (Transmittance at 450 nm was 90% or more)
